For this experiment, the system named is cellular uptake of PS-LNPs and LNPs. Kind of experiment: Cellular uptake inhibition experiments. The format is cell-based. The settings on record: at least 50% inhibition considered significant. The text has this:
To elucidate mechanisms of cellular uptake and intracellular processing in the presence and absence of PS, we conducted a series of cellular uptake inhibition experiments. An arbitrary threshold of at least 50% inhibition was considered to be significant.

For the compound `COc1cc2c(c(OC)c1OC)-c1ccc(OC)c(=O)cc1[C@@H](NC(C)=O)CC2` [Colchicine], the “inhibition of uptake of LNPs (without PS)” value is given as “specifically inhibited” and the “inhibition of uptake of PS-LNPs” value is on record as “specifically inhibited”.

As to `O=C(N/N=C/c1ccc(O)c(O)c1)c1cc2ccccc2cc1O` [Dynasore], the “inhibition of uptake of LNPs (without PS)” value was “specifically inhibited” and the “inhibition of uptake of PS-LNPs” value is “specifically inhibited”.

As for `CN(C)CCCN1c2ccccc2Sc2ccc(Cl)cc21` [Chlorpromazine], the “inhibition of uptake of PS-LNPs” value is “specifically inhibited”.

The values above are taken from EP4226916A1, “LIPID NANOPARTICLE COMPRISING PHOSPHATIDYLSERINE” (Universität Basel, priority 2022, dated 2023).
